The values that follow are results of earlier work, collected in patent US12661328B2, “Methods of treating anti-NMDAR-associated neuropsychiatric disorders” (Vanderbilt University, priority 2018, dated 2026).

Data set [1] has as its system voltage-dependent calcium, sodium, or potassium channels.
The test system of data set [2] is extrasynaptic NMDA receptors. Particulars: Xia et al., 2010.
Data set [3] deals with γ-aminobutyric acid (GABA), benzodiazepine, dopamine, adrenergic, histamine, or glycine receptors.

Structures are written as SMILES.

On to `CC12CC3CC(C)(C1)CC(N)(C3)C2` [Memantine, 1-amino-3,5-dimethyladamantane], for which the “affinity for voltage-dependent calcium, sodium, or potassium channels” value in data set [1] was “no affinity”. Besides, in data set [2], the “concentration range of relatively specific inhibition of extrasynaptic NMDA receptors” value was “low micromolar range”. Also, in the data set on NMDA receptors, the “affinity for NMDA receptors” value was “low to moderate-affinity”. For the same compound, the “affinity for GABA, benzodiazepine, dopamine, adrenergic, histamine, or glycine receptors” value in data set [3] is recorded as “no affinity”.
